Here are results for two compounds from patent US6830885B1, “Nucleic acid molecule, method and kit for selecting a nucleic acid having a desired feature” (priority 2000, dated 2004).

Molecules are shown by their SMILES. Read-outs that look alike come from different tables or passages of the source.

The test system of experiment [1] is Sindbis-infected BHK-21 cells. The settings on record: cited from earlier work.
The subject of a further experiment is Sindbis viral particles. The experiment is described as follows: Virus production from BHK-21 cells infected with VB222-derived Sindbis viral particles under drug treatment. The class given is cell-based. The settings on record: multiplicity of infection 0.05, viral particles collected 6 hours later. As for the experimental part:
The viral genome was transcribed from plasmid VB222. The exogenous nucleic acid encodes GFP to facilitate detection of transfected and/or infected cells. BHK-21 cells were transfected with said viral genome and viral particles were collected 34 hours later. These viral particles were tittered by standard plaque assay and used to infect BHK-21 cells at a multiplicity of infection of 0.05. The medium was changed one hour post-infection. Drugs were added one hour post-infection at a concentration of 200 nM (okadaic acid) or 30 μg/ml (cerulenin) and viral particles were collected 6 hours later. […] Treatment with the drug could be maintained while propagating the viral particles, thereby further decreasing the number of viral particles produced from viral genomes expressing an exogenous nucleic acid encoding a peptide or protein that is not involved in drug-resistance.

On to `C/C=C/C/C=C/CCC(=O)[C@H]1O[C@H]1C(N)=O` [cerulenin], for which, in experiment [1] (30 μg/ml), the “production of viral particles” value is given as “impairs production of viral particles”. The “decrease in virus production” value with Sindbis viral particles (cerulenin 30 μg/ml added one hour post-infection) turned out to be 39 fold.

Consider `C=C1[C@@H](O)[C@@H]2O[C@]3(CC[C@H](/C=C/[C@@H](C)[C@@H]4CC(C)=C[C@@]5(O[C@H](C[C@@](C)(O)C(=O)O)CC[C@H]5O)O4)O3)CC[C@H]2O[C@@H]1[C@@H](O)C[C@H](C)[C@H]1O[C@@]2(CCCCO2)CC[C@H]1C` [okadaic acid], for which the “production of viral particles” value in experiment [1] (200 nM) is “impairs production of viral particles”. The “decrease in virus production” value in the experiment on Sindbis viral particles (okadaic acid 200 nM added one hour post-infection) is recorded as 13 fold.
